Values after ≈ are worked out from the molar mass of the structure shown.
Experiments:
physchem = conditions: kinetic from dmso stock
Method: Solubility is measured by the following method.
100 uL, 10 mM DMSO stock solution of each compound is prepared in a 96 well plate format. The experiment is done in single determination at 3 pH values (2.2, 4.5 and 6.8). For each pH and one reference, 40 uL of each compound is needed.
McIlvaine pH 2.2: To 2.076 g citric acid monohydrate and 0.043 g Na2HPO4×2H2O add 100 ml deionized water
McIlvaine pH 4.5: To 1.166 g citric acid monohydrate and 1.585 g Na2HPO4×2H2O add 100 ml deionized water
McIlvaine pH 6.8: To 0.476 g citric acid monohydrate and 2.753 g Na2HPO4×2H2O add 100 ml deionized water
With a suitable liquid handling device (Multipette® or a liquid handler) 390 uL of each buffer solution and 10 uL of compound is added to each well of a 96 deep well plate. The plates are covered firmly and shaken for 24 h on an over head shaker (at 54 RPM) at room temperature. The DMSO content in the final buffer is 2.5% v/v.
After 24 h the plates are centrifuged to remove droplets on the lid before opening (for ˜5 min at 2500 RPM).
The filtration is done under vacuum with Millipore 96 well filter plate. Filtrate is collected in a deep well plate and transferred to a suitable plate for UPLC analysis.
The reference plate is prepared by adding 10 uL of compound to 390 uL of 50:50 acetonitrile/water in a 96 deep well plate and transferred to a suitable plate for UPLC analysis. Wells are checked visually for precipitation, any presence noted under comments in reported results.
The samples are measured with UPLC-UV using the chromatographic method described below.
Waters Empower®2 software is used for generating Sample Sets (according to the plate layout), Sample Set Methods and Instrument Methods.
One Sample Set comprises the methods for three 96 well plates (one reference plate and two sample plates, and includes one Sample Set Method and one Instrument Method).
Data Processing and Analysis
The UV chromatograms collected at 254 nm are integrated and processed.
It is assumed that the compound is completely dissolved in the reference solution (50:50 acetonitrile/water)

[1] = Human liver microsome (HLM) metabolic stability assay; type: in vitro ADME; conditions: human liver microsomes
Method: The 5 time point, high-throughput human liver microsome (HLM) metabolic stability assay is designed to determine in vitro compound metabolism. Compounds are incubated with HLMs at a concentration of 1 uM, at 37° C., for a total of 60 min. The percent of compound remaining at 5, 15, 30, and 60 min is used to calculate the t1/2 (min), CLint (mL/min/kg), CLh (mL/min/kg), and % Qh. The assay is based on a 96-well format and can accommodate up to 92 compounds per plate (n=1).
Using the 96-well multi-channel head, the Biomek FX, equipped with a Peltier heating block/shaker, is programmed to accomplish the following steps: • 1. Pipette 175 uL of 1.15 mg/mL microsomes into each of the 96 conical inserts (Analytical Sales and Products, catalog number 96PL05) that fit into the plate of the Peltier heating block/shaker (the incubation plate) • 2. Add 5 uL of compounds from the assay plate to the microsomes and shake the mixture at 600 rpm at 42.1° C. for 10 min (a setting of 42.1° C. on the Peltier is required for the samples to incubate at 37° C.) • 3. After 10 min, prompt the user to add the NADPH plate to the deck and add 20 uL from the NADPH plate to the incubation plate to start the reaction • 4. Add 215 uL of 100%, cold acetonitrile containing an internal standard(s) to a 0 minute, 5 minute, 15 minute, 30 minute, and 60 minute “quench” plate • 5. At 0 min, 5 min, 15 min, 30 min, and 60 min into the incubation, aspirate 12 uL from the incubation mixture and add it to the quench solution to stop the reaction • 6. Add 185 uL HPLC grade water to each well of the 0, 5, 15, 30 and 60 minute quench plates to dilute compounds to the appropriate concentration for the mass spectrometer
After all time points are collected, the quench plates are sealed with 96-well pierceable plate mats or heat sealing foil and centrifuged at 3000 rpm for 15 min to pellet the microsomes.
The plates are analyzed using LC/MS/MS with electron spray ionization (ESI) and the previously determined MRM transitions. The LC method includes the following parameters:
Using an Excel template in Activitybase, the peak areas corresponding to 5, 15, 30 and 60 min are compared to the peak area at 0 min to calculate the percent of remaining compound using the following equation:
Percent compound remaining=(AUC at Time t min/AUC at Time 0 min)×100 where t=0, 5, 15, 30 or 60 min.
Time (min) is plotted against the natural logarithm (Ln) of the percent compound remaining to determine the slope. The slope is used to calculate t1/2 (min) using the equation, t1/2=0.693/slope.
Clh, Hepatic clearance • Hepatic flow*f(u)*Clint/(hepatic flow+f(u)*Clint)
Qh, % Hepatic blood flow • (Clh/Hepatic flow)*100
Preferred compounds have % Qh values of less than 24.

[2] = biological target: human soluble guanylate cyclase alpha 1 and beta 1 subunits (sGC) (Homo sapiens (Human), UniProt Q02108+Q02153); assay: sGC cellular activator assay (cGMP, HTRF), in the presence and absence of 50% human serum; type: cell-based; conditions: CHO cells stably expressing human sGC alpha 1/beta 1, preincubated with 40 microM ODQ; cGMP by HTRF; Table 2 does not state whether with or without 50% human serum
Method: The sGC cellular activator assay is performed in the presence and absence of 50% human serum (HS) using Chinese hamster ovary cells that have been stably transfected to express the human soluble guanylate cyclase alpha 1 and beta 1 subunits (sGC). Cells are preincubated with 40 microM 1H-[1,2,4]oxadiazolo[4,3-a]quinoxalin-1-one (ODQ), an sGC inhibitor, for one h in buffer containing 0.1% bovine serum albumin and 3-isobutyl-1-methylxanthine (IBMX). Concentration response curves are prepared for test compounds in DMSO. An intermediate dilution of the compounds is performed in either buffer containing IBMX or type AB HS containing IBMX. Diluted compounds are added to cells and they are incubated at room temperature for thirty min. cGMP is measured using a CisBio homogeneous time resolved fluorescence kit and the EC50 is calculated for each compound.
Representative compounds of the present invention were tested for activity the above assay. Preferred compounds have an EC50 of <1,000 nM in the above assay and more preferred compounds have an EC50<200 nM.

[3] = pH 2.2, aqueous buffer, Solubility (pH 2.2)
[4] = pH 4.5, aqueous buffer, Solubility (pH 4.5)
[5] = pH 6.8, aqueous buffer, Solubility (pH 6.8)

Sequence of human soluble guanylate cyclase alpha 1 and beta 1 subunits (sGC) (Q02108 whole entry partner): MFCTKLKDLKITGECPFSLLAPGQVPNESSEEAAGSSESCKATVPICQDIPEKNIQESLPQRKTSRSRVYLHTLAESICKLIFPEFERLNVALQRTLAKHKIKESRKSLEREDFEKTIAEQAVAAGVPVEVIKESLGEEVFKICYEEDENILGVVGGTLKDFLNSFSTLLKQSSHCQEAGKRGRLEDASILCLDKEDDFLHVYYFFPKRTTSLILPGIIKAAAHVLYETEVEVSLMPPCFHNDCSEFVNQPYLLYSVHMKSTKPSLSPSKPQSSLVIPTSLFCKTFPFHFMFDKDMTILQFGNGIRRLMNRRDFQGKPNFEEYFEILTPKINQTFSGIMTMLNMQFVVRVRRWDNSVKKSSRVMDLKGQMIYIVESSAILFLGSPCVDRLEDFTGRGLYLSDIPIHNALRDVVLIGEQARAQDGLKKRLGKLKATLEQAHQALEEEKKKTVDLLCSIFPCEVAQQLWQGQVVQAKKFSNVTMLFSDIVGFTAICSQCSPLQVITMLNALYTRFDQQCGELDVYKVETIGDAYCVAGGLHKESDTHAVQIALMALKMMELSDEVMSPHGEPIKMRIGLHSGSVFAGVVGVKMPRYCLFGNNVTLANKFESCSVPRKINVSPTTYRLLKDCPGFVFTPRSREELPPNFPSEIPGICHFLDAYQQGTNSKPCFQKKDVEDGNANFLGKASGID
Sequence of human soluble guanylate cyclase alpha 1 and beta 1 subunits (sGC) (Q02153 whole entry): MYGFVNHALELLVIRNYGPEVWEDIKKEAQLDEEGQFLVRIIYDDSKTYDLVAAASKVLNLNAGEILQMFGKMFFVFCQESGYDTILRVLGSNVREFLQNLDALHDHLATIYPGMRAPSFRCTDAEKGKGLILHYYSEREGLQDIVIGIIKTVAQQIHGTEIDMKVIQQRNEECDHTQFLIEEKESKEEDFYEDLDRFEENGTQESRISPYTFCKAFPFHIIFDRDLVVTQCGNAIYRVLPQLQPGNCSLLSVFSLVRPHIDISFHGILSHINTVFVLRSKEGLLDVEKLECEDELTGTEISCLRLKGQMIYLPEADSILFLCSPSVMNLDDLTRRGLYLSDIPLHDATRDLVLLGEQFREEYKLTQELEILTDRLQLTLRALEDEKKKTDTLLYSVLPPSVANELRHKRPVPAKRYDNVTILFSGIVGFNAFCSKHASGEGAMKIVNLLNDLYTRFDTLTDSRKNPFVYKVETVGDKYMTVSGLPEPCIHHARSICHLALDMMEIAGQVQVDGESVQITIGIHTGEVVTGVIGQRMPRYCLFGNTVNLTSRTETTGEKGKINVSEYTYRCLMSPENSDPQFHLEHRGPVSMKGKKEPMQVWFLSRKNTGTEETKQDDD

Row | Compound | solubility at 24 h (physchem; [3]) | solubility at 24 h (physchem; [4]) | solubility at 24 h (physchem; [5]) | Metabolic stability (Qh %), % hepatic blood flow [1] | EC50 [2]
1 | Cc1cc(COc2c(C)cccc2-c2cccc(N3C[C@@H]4C[C@]4(C(=O)O)C3)n2)cc2c1CN(C1CCOC1)CC2 (stereo partly drawn) [Compound 24] | 110 µg/mL (≈ 204 µM) | 98 µg/mL (≈ 182 µM) | 69 µg/mL (≈ 128 µM) | <24% | 6 nM
2 | COc1cc(COc2c(C)cccc2-c2cccc(N3C[C@@H]4C[C@]4(C(=O)O)C3)n2)cc2c1CN(C1CCOCC1)CC2 [Compound 27] | 110 µg/mL (≈ 193 µM) | 95 µg/mL (≈ 167 µM) | 68 µg/mL (≈ 119 µM) | <24% | 16 nM
3 | COc1cc(COc2c(C)cccc2-c2cccc(N3C[C@@H]4C[C@]4(C(=O)O)C3)n2)cc2c1CN(C1COC1)CC2 [Compound 28] | 110 µg/mL (≈ 203 µM) | 90 µg/mL (≈ 166 µM) | 73 µg/mL (≈ 135 µM) | <24% | 19 nM
4 | Cc1cccc(-c2cccc(N3C[C@@H]4C[C@]4(C(=O)O)C3)n2)c1OCc1cc(C#N)c2c(c1)CCN(C1COC1)C2 [Compound 29] | 110 µg/mL (≈ 205 µM) | 76 µg/mL (≈ 142 µM) | 79 µg/mL (≈ 147 µM) | <24% | 18 nM
5 | Cc1cccc(-c2cccc(N3C[C@@H]4C[C@]4(C(=O)O)C3)n2)c1OCc1cc(C#N)c2c(c1)CCN(C1CCOCC1)C2 [Compound 30] | 110 µg/mL (≈ 195 µM) | 84 µg/mL (≈ 149 µM) | 62 µg/mL (≈ 110 µM) | <24% | 8 nM
6 | Cc1cccc(-c2cccc(N3C[C@@H]4C[C@]4(C(=O)O)C3)n2)c1OCc1ccc2c(c1)CCN(C1CCOCC1)CC2 [Compound 31] | 110 µg/mL (≈ 199 µM) | 95 µg/mL (≈ 172 µM) | 67 µg/mL (≈ 121 µM) | <24% | 7 nM
7 | Cc1cccc(-c2cccc(N3C[C@@H]4C[C@]4(C(=O)O)C3)n2)c1OCc1ccc2c(c1)CCN(C1COC1)CC2 [Compound 32] | 120 µg/mL (≈ 228 µM) | 88 µg/mL (≈ 167 µM) | 50 µg/mL (≈ 95.1 µM) | <24% | 4 nM
8 | Cc1cccc(-c2cccc(N3C[C@@H]4C[C@]4(C(=O)O)C3)n2)c1OCc1ccc2c(c1C)CCN(C1CCOCC1)CC2 [Compound 33] | 110 µg/mL (≈ 194 µM) | 93 µg/mL (≈ 164 µM) | 68 µg/mL (≈ 120 µM) | <24% | 4 nM
9 | Cc1cccc(-c2cccc(N3C[C@@H]4C[C@]4(C(=O)O)C3)n2)c1OCc1ccc2c(c1C)CCN(C1COC1)CC2 [Compound 34] | 110 µg/mL (≈ 204 µM) | 97 µg/mL (≈ 180 µM) | 67 µg/mL (≈ 124 µM) | <24% | 2 nM
10 | Cc1ccc(OCc2ccc3c(c2C)CCN(C2CCOCC2)C3)c(-c2cccc(N3C[C@@H]4C[C@]4(C(=O)O)C3)n2)c1 [Compound 35] | 100 µg/mL (≈ 181 µM) | 93 µg/mL (≈ 168 µM) | 6.4 µg/mL (≈ 11.6 µM) | <24% | 45 nM
11 | Cc1ccc(OCc2ccc3c(c2C)CCN(C2COC2)C3)c(-c2cccc(N3C[C@@H]4C[C@]4(C(=O)O)C3)n2)c1 [Compound 36] | 100 µg/mL (≈ 190 µM) | 84 µg/mL (≈ 160 µM) | 48 µg/mL (≈ 91.3 µM) | <24% | 120 nM
12 | Cc1ccc(OCc2cc(C)c3c(c2)CCN(C2CCOCC2)C3)c(-c2cccc(N3C[C@@H]4C[C@]4(C(=O)O)C3)n2)c1 [Compound 37] | 100 µg/mL (≈ 181 µM) | 93 µg/mL (≈ 168 µM) | 50 µg/mL (≈ 90.3 µM) | <24% | 299 nM

From US9353090B2, “Heterocyclic carboxylic acids as activators of soluble guanylate cyclase” (Boehringer Ingelheim International GmbH, priority 2014, dated 2016)
